Laboratory results published in ChEMBL document CHEMBL1777777, “Design, synthesis of symmetrical bivalent mimetics of annonaceous acetogenins and their cytotoxicities” (Bioorg Med Chem Lett, 2011).
Activity calls are given as the source filed them. No cut-off for these calls is given here.

How the values were obtained:
SGC-7901 = assay: Cytotoxicity against human SGC7901 cells after 74 hrs by MTT assay; assay type: functional
MCF7 = assay: Cytotoxicity against human MCF7 cells after 74 hrs by MTT assay; assay type: functional
HT-29 = assay: Cytotoxicity against human HT-29 cells after 74 hrs by MTT assay; assay type: functional
HCT-116 = assay: Cytotoxicity against human HCT116 cells after 74 hrs by MTT assay; assay type: functional
[1] = Cytotoxicity against human BEAS2B cells after 74 hrs by MTT assay; assay type: cell-based, BEAS-2B; details: for GI50: beas-2b, 74 h; for GI50 at 74 h: BEAS2B cells
[2] = Cytotoxicity against human HLF cells after 74 hrs by MTT assay; assay type: cell-based; details: for GI50: hlf, 74 h; for GI50 at 74 h: HLF cells

Compound	GI50 (SGC-7901)	GI50 (MCF7)	GI50 (HT-29)	GI50 (HCT-116)	GI50 [1]	GI50 [2]	GI50 (SGC-7901; SGC-7901, 74 h) [nM]	GI50 (MCF7; MCF7, 74 h) [nM]	GI50 (HT-29; HT-29, 74 h) [nM]	GI50 (HCT-116; HCT-116, 74 h) [nM]	GI50 at 74 h [1] [µM]	GI50 at 74 h [2] [µM]
COc1c(C)c(CCCCCCCCCN2CCN(CCCCCCCCCc3c(C)c(OC)c(OC)c(OC)c3OC)CC2)c(OC)c(OC)c1OC	inactive	inactive	inactive	inactive	Not Active	Not Active	–	–	–	–	–	–
COC1=C(OC)C(=O)C(CCCCCCCCCN2CCN(CCCCCCCCCC3=C(C)C(=O)C(OC)=C(OC)C3=O)CC2)=C(C)C1=O	–	–	–	–	–	–	490	400	> 10000	500	> 10	> 10
CCCCCCCCCC[C@H](O)COCCOC[C@@H](O)CCCCCCCCCCCCC1=C[C@H](C)OC1=O	–	–	–	–	–	–	60	260	350	110	> 10	> 10
C[C@H]1C=C(CCCCCCCC(O)CNCCCNCC(O)CCCCCCCC2=C[C@H](C)OC2=O)C(=O)O1 (mixture of isomers)	inactive	inactive	inactive	inactive	Not Active	Not Active	–	–	–	–	–	–
C[C@H]1C=C(CCCCCCCC(O)CN(C)CCN(C)CC(O)CCCCCCCC2=C[C@H](C)OC2=O)C(=O)O1 (mixture of isomers)	–	–	inactive	inactive	–	–	6220	3160	–	–	> 10	> 10
C[C@H]1C=C(CCCCCCCC(O)CN(C)CCCN(C)CC(O)CCCCCCCC2=C[C@H](C)OC2=O)C(=O)O1 (mixture of isomers)	–	–	–	–	–	–	4120	2380	1500	> 10000	10.6	4.42
C[C@H]1C=C(CCCCCCCC(O)CNc2ccc(NCC(O)CCCCCCCC3=C[C@H](C)OC3=O)cc2)C(=O)O1 (mixture of isomers)	–	–	–	–	Not Active	Not Active	4400	7370	870	2490	–	–
C[C@H]1C=C(CCCCCCCC(O)CN2CCN(CC(O)CCCCCCCC3=C[C@H](C)OC3=O)CC2)C(=O)O1 (mixture of isomers)	–	–	–	–	Not Active	–	1670	2190	> 10000	3720	–	> 10
